The assay concerns U87MG glioblastoma xenograft. As to the kind of experiment: U87MG glioblastoma xenograft tumor growth in nude mice. In kind it is in vivo. The protocol: The following human glioblastoma xenograft model may be employed to ascertain the efficacy of the formulations and methods described herein. Human glioblastoma cell U87MG are inoculated subcutaneously into female nude mice (age 4-6 wks). Xenograft tumor growth is followed by measuring the tumor size using a caliper. Once tumor size reaches about 100 mm^3 (average), mice carrying the xenograft tumors are grouped and treated with different doses of the combination of TMZ and a multi-targeted kinase inhibitor. Likewise, human glioblastoma cell U373 may be used to establish a xenograft model.
The combination of TMZ and a multi-targeted kinase inhibitor (e.g., sunitinib) for treating a cell proliferative disorder was examined using a human glioblastoma xenograft model. In particular, the glioblastoma model U87MG was used to evaluate the efficacy of multi-targeted kinase inhibitor sunitinib as a single agent compared to TMZ (Temozolomide, Temodar®), a chemotherapeutic drug clinically approved for treating brain tumor, as a single agent. In addition, this study looked at the efficacy of the combination of TMZ with sunitinib in comparison to the efficacy with either agent alone.
In brief, nude mice were inoculated with U87-MG glioblastoma cells and the resultant tumors treated with control, or various concentrations of TMZ, sunitinib, or a combination of both TMZ and sunitinib. More specifically, female nude mice (strain NU/NU), aged 6-8 weeks old were purchased from Charles River Laboratory. Five million glioblastoma U87-MG were mixed 1:1 (volume:volume) with Matrigel (Cat. # 354234, BD Biosciences) on ice and mixtures were inoculated subcutaneously to the flank of each mouse. Dosing was initiated on day 8 after inoculation when the tumor size was approximately 100 mm^3. TMZ was administered qd, ip for five consecutive days. Sunitinib was administered qd, po for 9-12 days consecutive days (until the end of the studies). The dosing volume was approximately 0.1 ml. Tumor size and body weight was measured two to three times per week.
There were 10 nude mice per dosing regimen.

For the compound `CCN(CC)CCNC(=O)c1c(C)[nH]c(/C=C2\C(=O)Nc3ccc(F)cc32)c1C` [sunitinib], the “inhibition of tumor growth” value reads like this: (Day 17 post inoculation, sunitinib alone 40 mpk qd po, Table 1 / FIG. 2) 56%; (Day 17 post inoculation, sunitinib alone 80 mpk qd po, Table 1 / FIG. 2) 82%; (Day 20 post inoculation, sunitinib alone 40 mpk qd po, Table 2 / FIG. 4) 76%; (Day 20 post inoculation, sunitinib alone 80 mpk qd po, Table 2 / FIG. 4) 83%.

With `Cn1nnc2c(C(N)=O)ncn2c1=O` [TMZ, 3,4-dihydro-3-methyl-4-oxoimidazo[5,1-d]-as-tetazine-8-carboxamide], the “inhibition of tumor growth” value is recorded as 96% (Day 17 post inoculation (day 9 post dosing initiation), TMZ alone 20 mpk qd ip x5 days, Table 1 / FIG. 2); 96% (Day 17 post inoculation, TMZ alone 30 mpk (so in the source) qd ip x5 days, Table 1 / FIG. 2); 98% (Day 17 post inoculation, TMZ alone 40 mpk (so in the source) qd ip x5 days, Table 1 / FIG. 2); 95% (Day 20 post inoculation (day 12 post dosing initiation), TMZ alone 5 mpk qd ip x5 days, Table 2 / FIG. 4); 102% (Day 20 post inoculation, TMZ alone 20 mpk qd ip x5 days, Table 2 / FIG. 4).

Source of the values: patent US20100087499A1, “PHARMACEUTICAL COMPOSITIONS AND METHODS OF USING TEMOZOLOMIDE AND MULTI-TARGETED KINASE INHIBITORS” (SCHERING CORPORATION, priority 2007, published 2010).
